# Results: ChEMBL document CHEMBL2074470, “P-glycoprotein-mediated transport of itraconazole across the blood-brain barrier” (Antimicrob Agents Chemother, 1998)
# Molecular target: ATP-dependent translocase ABCB1 (Mus musculus, UniProt P21447)
# Assay: TP_TRANSPORTER: increase in brain concentration in mdr1a(-/-) mouse
# Assay type: functional, organism-based
# Conditions: in vivo
# Sequence of ATP-dependent translocase ABCB1 (P21447 whole entry): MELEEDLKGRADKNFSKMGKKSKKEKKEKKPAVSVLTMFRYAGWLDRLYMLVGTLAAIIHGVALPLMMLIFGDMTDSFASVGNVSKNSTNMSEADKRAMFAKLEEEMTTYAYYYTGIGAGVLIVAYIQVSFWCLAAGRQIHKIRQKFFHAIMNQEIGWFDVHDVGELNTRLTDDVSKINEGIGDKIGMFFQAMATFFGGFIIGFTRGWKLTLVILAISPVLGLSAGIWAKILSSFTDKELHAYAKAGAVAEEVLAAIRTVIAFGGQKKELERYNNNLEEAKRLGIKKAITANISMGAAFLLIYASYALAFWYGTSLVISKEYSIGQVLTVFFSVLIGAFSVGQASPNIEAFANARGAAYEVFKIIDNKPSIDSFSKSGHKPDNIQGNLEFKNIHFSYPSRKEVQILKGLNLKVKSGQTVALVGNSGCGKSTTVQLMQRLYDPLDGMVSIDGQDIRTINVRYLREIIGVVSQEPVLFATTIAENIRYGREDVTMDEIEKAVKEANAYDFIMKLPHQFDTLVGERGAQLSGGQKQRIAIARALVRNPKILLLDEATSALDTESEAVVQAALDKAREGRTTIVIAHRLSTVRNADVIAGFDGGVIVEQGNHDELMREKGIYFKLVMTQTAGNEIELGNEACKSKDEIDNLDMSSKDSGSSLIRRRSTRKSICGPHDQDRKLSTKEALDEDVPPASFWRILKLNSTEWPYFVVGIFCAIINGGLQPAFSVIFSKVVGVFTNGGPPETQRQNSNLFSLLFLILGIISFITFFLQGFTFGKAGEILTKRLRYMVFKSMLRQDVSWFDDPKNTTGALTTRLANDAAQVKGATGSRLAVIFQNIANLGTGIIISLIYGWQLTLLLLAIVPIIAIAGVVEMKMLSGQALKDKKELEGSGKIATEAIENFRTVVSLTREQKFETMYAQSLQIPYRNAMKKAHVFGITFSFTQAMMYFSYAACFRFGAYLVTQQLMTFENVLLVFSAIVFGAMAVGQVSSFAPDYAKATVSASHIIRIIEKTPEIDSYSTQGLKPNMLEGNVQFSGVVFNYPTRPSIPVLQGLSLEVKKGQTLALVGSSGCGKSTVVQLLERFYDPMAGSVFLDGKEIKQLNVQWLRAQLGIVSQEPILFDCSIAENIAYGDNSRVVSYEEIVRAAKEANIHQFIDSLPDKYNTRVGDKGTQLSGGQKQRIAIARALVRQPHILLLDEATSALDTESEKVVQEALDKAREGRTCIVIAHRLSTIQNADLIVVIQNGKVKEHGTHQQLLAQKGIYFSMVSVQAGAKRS
smiles,measurement,value
CCC(C)n1ncn(-c2ccc(N3CCN(c4ccc(OCC5COC(Cn6cncn6)(c6ccc(Cl)cc6Cl)O5)cc4)CC3)cc2)c1=O (stereo unspecified) [ITRACONAZOLE],Activity,substrate [+]
